Values of other authors in patent US20250369953A1, “METHODS FOR MEASURING CIRCADIAN RHYTHM FACTORS” (priority 2024, published 2025).

peak plasma concentrations (endogenous, nighttime sleep, occurring at approximately 02:00 am): approximately 70 μg/ml
metabolic clearance (healthy young adult humans): approximately 1 liter per minute
volume of distribution (healthy young adult humans): approximately 40 liters
SMILES: COc1ccc2[nH]cc(CCNC(C)=O)c2c1 [Melatonin, N-acetyl-5-methoxytryptamine]
